# Values of other authors as cited in patent publication US6376550B1, “Pharmaceutical compositions containing tramadol for migraine” (ASTA Medica AG, priority 1999, dated 2002).
# Conditions: in vivo
smiles,measurement,value
"COc1cccc(C2(O)CCCCC2CN(C)C)c1 (stereo not shown) [tramadol, 2-[(dimethylamino)methyl]-1-(3-methoxyphenyl)cyclohexanol]",terminal elimination half life,5 to 6 h
